Like-named read-outs stand apart in the source and are kept apart here.
Assays:
PPARα receptor = biological target: T1, PPARα receptor (Rattus norvegicus, UniProt P37230); settings: rat liver cells (Pawar & Jump 2003); cited from earlier work
T1 construct: host or cells: rat liver cells
T1 sequence (P37230 1-468): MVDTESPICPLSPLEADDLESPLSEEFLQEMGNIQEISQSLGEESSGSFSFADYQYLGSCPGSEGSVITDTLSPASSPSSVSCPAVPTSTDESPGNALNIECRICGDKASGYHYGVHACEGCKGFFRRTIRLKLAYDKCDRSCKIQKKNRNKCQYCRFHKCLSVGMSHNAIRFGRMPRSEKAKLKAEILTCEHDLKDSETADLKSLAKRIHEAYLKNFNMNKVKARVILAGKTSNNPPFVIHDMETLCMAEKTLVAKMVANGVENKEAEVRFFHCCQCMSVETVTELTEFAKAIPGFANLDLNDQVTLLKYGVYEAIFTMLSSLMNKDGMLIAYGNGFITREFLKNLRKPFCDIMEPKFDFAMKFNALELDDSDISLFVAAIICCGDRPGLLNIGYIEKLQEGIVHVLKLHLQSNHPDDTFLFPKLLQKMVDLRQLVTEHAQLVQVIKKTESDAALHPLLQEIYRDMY

[1] = Effect of DHA derivatives in adipose prone mice during 4 months of dietary interventions (Example 5a); type: in vivo, male C57BL/6 mice; set-up: AUC: unit not given beside the values; settings: for Insulin: plasma
Experimental: All experiments were performed on male C57BL/6 mice, either a substrain C57BL/N (supplier: Charles River, Germany, n=160, experiments A-C, see below), or a substrain C57BL/6J (supplier: the Jackson laboratory, Bar Harbor, Me., USA, n=32, experiment D). Total numbers of animals used were higher (n=170 and 36, respectively), because of culling. In the latter case, animals were bred for several generations (<20) at the Institute of Physiology. At the beginning of the treatment, animals were 14-week-old and their body weight range was 23.6-27.1 g. One week before the study start, animals were sorted according to their body weight and assigned to subgroups (n=8) of similar mean body weight. This method allowed for culling of about 5-10% of animals showing the lowest and highest body weight, respectively. The animals eliminated from the study at this stage were sacrificed by cervical dislocation. Complete health check of mice was performed by the supplier Charles River and at the start of study serological tests were performed by ANLAB (Prague, Czech Republic). In addition, regular health checks were performed in the animal house in 3-mo-intervals using sentinel mice and serological examinations (ANLAB). In all the tests, the animals were free of specific pathogens.
• (i) Chow diet (ssniff R/M-H from SSNIFF Spezialdieten Gmbh, Soest, Germany; see also http://ssniff.de) with protein, fat and carbohydrate forming 33, 9, and 58 energy %, respectively • (ii) High-fat diet prepared in the laboratory (cHF diet) with protein, fat and carbohydrate forming 15, 59, and 26 energy %, respectively, and well characterized fatty acid composition (with most of the lipids coming from corn oil; see Ruzickova 2004) • (iii) cHF diets in which 0.15, 0.5, and 1.5% of fat (specifically the corn oil constituent) was replaced by various PRB-compounds, namely PRB1, PRB2, PRB5, PRB7, and PRB8, or by DHA. All these compounds were in the form of ethyl esters, provided by Pronova Biocare a.s. in sealed containers. Chemical composition of the PRB-compounds was unknown to the laboratory performing the experiments (Institute of Physiology, Academy of Sciences Prague, Czech Republic).
The study was based on 4 individual experiments. In each of the experiments, different PRB-compounds (or DHA, respectively) admixed to cHF diet in three different concentrations (0.15, 0.5, and 1.5% of the fat content) were tested. In each experiment, a subgroup of plain cHF diet-fed mice was included and served as a control. Mice were caged in groups of 4 and fed standard chow diet until 3 mo of age, when animals (n=8-13) were randomly assigned to the different test diets. After 2 mo on this new diet (at 5 mo of age), animals were fasted overnight and in the morning, intraperitoneal Glucose Tolerance Test (GTT) was performed. Animals were sacrificed after 4 months on the experimental diets, at 7 mo of age, and the end-point analysis were performed.

[2] = Larsen 1998; cited from earlier work
[3] = Vaagenes 1999; cited from earlier work
PPARγ = biological target: T2, PPARγ (Homo sapiens, UniProt P37231); assay: Affinity testing in transfected cells (release of luciferase); type: cell-based; settings: FIG. 8; 10 μM of PRBs
T2 construct: For full length PPAR transfection studies, each well received 5 μg reporter construct; expressed in transfected cells; host or cells: COS-1 cells
T2 sequence (P37231 1-505): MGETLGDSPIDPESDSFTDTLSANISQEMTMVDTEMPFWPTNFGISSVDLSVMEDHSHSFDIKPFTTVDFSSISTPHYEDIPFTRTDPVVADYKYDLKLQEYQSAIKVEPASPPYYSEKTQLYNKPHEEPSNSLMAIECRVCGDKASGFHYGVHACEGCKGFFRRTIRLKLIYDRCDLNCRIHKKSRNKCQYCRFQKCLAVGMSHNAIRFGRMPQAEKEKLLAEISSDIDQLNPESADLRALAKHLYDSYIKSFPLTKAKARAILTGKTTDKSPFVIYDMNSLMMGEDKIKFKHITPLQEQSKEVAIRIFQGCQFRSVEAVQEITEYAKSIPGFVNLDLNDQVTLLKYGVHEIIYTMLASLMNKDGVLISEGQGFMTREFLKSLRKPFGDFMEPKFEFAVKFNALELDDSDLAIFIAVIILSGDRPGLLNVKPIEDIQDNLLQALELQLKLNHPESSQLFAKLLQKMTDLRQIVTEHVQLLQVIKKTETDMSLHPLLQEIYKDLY
Experimental: Release of luciferase is correlated to transcription of genes. Binding of a ligand to a nuclear receptor such as PPARγ induces transcription of the respective gene thereby releasing luciferase. This technique therefore provides a measure of ligand affinity to the receptor as well as activation of the responsible gene.
Transient transfection of COS-1 cells was performed in 6-well plates as described by Graham and van der Eb (Graham). For full length PPAR transfection studies, each well received 5 μg reporter construct, 2.5 μg pSV-β-galactosidase as an internal control, 0.4 μg pSG5-PPARγ2. The cells were harvested after 72 h, and the luciferase activity was measured according to the protocol (Promega). The luciferase activity was normalised against β-galactosidase activity. The adipocytes were transfected at D11 of differentiation using 16 μl LipofectaminPlus reagent, 4 μl Lipofectamine (Life Technologies Inc.), 0.2 μg pSG5-PPARγ, and 100 ng pTK Renilla luciferase as control of transfection afficiency. […] The luciferase activities were measured as recommended by the manufacturer (Dual Luciferase assay, Promega). […]
Fatty acids (BRL or DHA) and PRBs (stock solutions) were solubilized to 0.1 M final concentration in DMSO. […] Luciferase activity was measured using a luminometer (TD-20/20 luminometer; Turner Designs, Sunnycvale, Calif.) and normalized against protein content.

PPARα = biological target: T3, PPARα (Homo sapiens, UniProt Q07869); settings: Larsen 2005; cited from earlier work
T3 sequence (Q07869 1-468): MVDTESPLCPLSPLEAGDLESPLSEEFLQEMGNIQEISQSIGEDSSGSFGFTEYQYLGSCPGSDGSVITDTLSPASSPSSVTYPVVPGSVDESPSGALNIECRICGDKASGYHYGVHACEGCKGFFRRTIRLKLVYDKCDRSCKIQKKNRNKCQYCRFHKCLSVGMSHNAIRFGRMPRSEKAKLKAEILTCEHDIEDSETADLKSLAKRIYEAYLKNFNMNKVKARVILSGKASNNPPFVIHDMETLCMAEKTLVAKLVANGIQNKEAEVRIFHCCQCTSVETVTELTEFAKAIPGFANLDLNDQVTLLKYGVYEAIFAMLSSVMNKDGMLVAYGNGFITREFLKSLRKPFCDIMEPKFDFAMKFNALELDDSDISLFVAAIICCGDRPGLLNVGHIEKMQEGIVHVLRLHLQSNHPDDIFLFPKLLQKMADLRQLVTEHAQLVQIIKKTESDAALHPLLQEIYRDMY

[4] = Body weight and food consumption during 2 weeks of diet intervention after 8 weeks of HF diet; type: in vivo, adipose prone mice of the C57BL/6J strain; settings: FIG. 10; last 2 weeks of experimental diets after 8 weeks HF diet; PRBs 1.5% of fat content, rosiglitazone 100 mg/KG diet
Experimental: The animals (n=8 in each group) were fed high fat diet (fat constituting 60% of total calories, the same diet as used in Block 5) for 8 weeks. Thereafter they were given the PRBs in a dose of 1.5% of the fat content of the diet for another two weeks. The rosiglitazone group was given an amount of 100 mg/KG diet. The control groups continued with either only high fat diet or standard chow.

platelet aggregation [5] = settings: in vivo (Willumsen 1998); cited from earlier work
platelet aggregation [6] = settings: in vitro (Larsen 1998); cited from earlier work

CC/C=C\C/C=C\C/C=C\C/C=C\C/C=C\CCCC(=O)O [EPA, (all-Z)-5,8,11,14,17-eicosapentaenoic acid]
binding capacity to the PPARα receptor (PPARα receptor): highest binding capacity

CC/C=C\C/C=C\C/C=C\C/C=C\C/C=C\C/C=C\CC(CC)(CC)C(=O)OCC [PRB-8, α,α di-ethyl docosahexaenoic acid ethyl ester]
body weight (BW) ([1]; 2 months intervention, 1.5%, controls 29.6±0.9): 28.0±0.7 grams
AUC ([1]; 2 months intervention, 1.5%, controls 1074±91): 1031±104

CC/C=C\C/C=C\C/C=C\C/C=C\C/C=C\CC(C)CC(=O)O (stereo not drawn) [β-methyl EPA]
incorporation into phospholipids and triglycerids [2]: is incorporated into phospholipids and triglycerids

CC/C=C\C/C=C\C/C=C\C/C=C\C/C=C\CCCC(=O)OCC [EPA EE]
plasma free fatty acid [3]: had no effect

CC/C=C\C/C=C\C/C=C\C/C=C\C/C=C\C/C=C\CC(C)C(=O)OCC (stereo not drawn) [PRB-1, α-methyl docosahexaenoic acid ethyl ester]
Body wt. gain ([1]; 4 months, 0.15% concentration): 22.9 ± 1.1 grams
AUCglucose ([1]; intraperitoneal glucose tolerance test, 1.5% concentration): 913 ± 68 mM × 180 min
Insulin ([1]; 4 months, 0.15% concentration): 3.50 ± 0.29 ng/mL
Insulin ([1]; 4 months, 1.5% concentration): 2.73 ± 0.33 ng/mL

CC/C=C\C/C=C\C/C=C\C/C=C\C/C=C\C/C=C\CC(SC)C(=O)OCC (stereo not drawn) [PRB-6, α-tiomethyl docosahexaenoic acid ethyl ester]
release of luciferase from transfected cells (PPARγ): significantly higher release of luciferase

CC/C=C\C/C=C\C/C=C\C/C=C\C/C=C\CCC(CC)C(=O)O (stereo not drawn) [α-ethyl EPA]
activation of the nuclear receptor PPARα (PPARα): equal strength as α-methyl EPA

CC/C=C\C/C=C\C/C=C\C/C=C\C/C=C\C/C=C\CCC(=O)O [DHA, (all-Z)-4,7,10,13,16,19-docosahexaenoic acid]
binding capacity to the PPARα receptor (PPARα receptor): highest binding capacity
change of body weight [4]: completely stopped the weight gain and even led to reduction of body weight

CC/C=C\C/C=C\C/C=C\C/C=C\C/C=C\CCC(C)C(=O)O (stereo not drawn) [α-methyl EPA]
incorporation into phospholipids and triglycerids [2]: is incorporated into phospholipids and triglycerids
inhibition of platelet aggregation (platelet aggregation [5]): stronger inhibitor of platelet aggregation than EPA
inhibition of platelet aggregation (platelet aggregation [6]): stronger inhibitor of platelet aggregation than EPA
